Test results published in patent publication US20110064694A1, “ANTI-HEPATITIS C ACTIVITY OF MESO-TETRAKIS-PORPHYRIN ANALOGUES” (YALE UNIVERSITY, priority 2009, published 2011).
Where two headings read alike, the source gives them in different places.

Assays:
[1] = test system: HCV genotype 1b (Con1) replicon; experiment: Effect of serum concentration on anti-HCV activity, luciferase assay in Huh-luc/neo-ET cells; assay type: cell-based, Hepatitis C virus; conditions: for Fold Change in EC50 5% FBS: EC50 at 5% FBS as one fold; for EC50: 72 hrs; for Fold Change in EC50 10% FBS / Fold Change in EC50 20% FBS / Fold Change in EC50 40% FBS: relative to EC50 at 5% FBS
Description: Cells were harvested after 72 hrs for luciferase activity assays.
Huh-luc/neo-ET cells were incubated with compound 1, 4 or 6 for 72 hrs and the anti-HCV activity was evaluated by measuring the reduction of reporter luciferase activities.

cytochrome c = cytochrome c (Equus caballus, UniProt P00004); conditions: read-out: Kd, binding to cyt c; cited from earlier work
cytochrome c, sequence (P00004 2-105 limits assumed): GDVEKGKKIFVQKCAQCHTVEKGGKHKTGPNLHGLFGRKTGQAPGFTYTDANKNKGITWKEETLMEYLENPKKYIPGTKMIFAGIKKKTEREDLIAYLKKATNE

HBV = experiment: Anti-HBV activity in 2.2.15 cells by Southern DNA hybridization; assay type: cell-based; conditions: read-out: Antiviral Activity EC50 HBV
Description: (§1) Determination of antiviral activities. Ff-luciferase reporter activity was used to monitor the replication of HCV replicons in Huhluc/neo-ET cells free from G418. Replicon cells were seeded at the density of 5×10^3 cells per well in 96-well plates. The following day, replicon cells were incubated in duplicates with DMSO or serially diluted tetraphenylporphyrin (TPP) analogues at 37″C. 72 hrs after co-incubation, cells were lysed with ice-cold passive lysis reagent after PBS wash, and the luciferase activity was measured with the luciferase assay kit (Promega) and Tecan FARCyte luminometer (GE Healthcare) following the manufacturers' descriptions. The relative light units (RLU) were adjusted as percentage readings of the compound-free controls and the 50% effective concentration (EC50) was determined from dose-effect curve by nonlinear regression analysis using Origin 6.1 (OriginLab Software). TPP analogues were also screened in vitro against HIV-I IIIB and HBV as previously described (26,41). Briefly 1×10^3 MT-2 cells per well were exposed in triplets to 0.1TC1D50/cell (50% of the tissue culture infectious dose) of HIV-1 IIIB and cultured in the presence of compounds. The EC50 values were estimated by MTT-based colorimetric quantitation of viral CPE after 5 days. Anti-HBV activities were evaluated in 2.2.15 cells by means of Southern DNA hybridization.

[2] = Cytotoxicity in Huh-7 cells (methylene blue or CellTiter-Glo); assay type: cell-based; conditions: human; Huh-7 cells, 3 days
Description: (§2) Determination of cytotoxicity and mitochondrial DNA toxicity. Exponentially growing Huh-7 cells were seeded at a density of 1×10^4 cells per well in a 24-well plate and incubated with TPP analogues for 3 days. Cells were fixed and stained with 0.5% methylene blue in 50% ethanol followed by extensive washing. After the plates were air dried, cells were solubilized in 1% sarkosyl and cell growth was determined from the extent of absorption by spectrophotometric measurements at 595 nm (Biotek Instruments). For compounds whose dark color interfered with 595-nm reading, cytotoxicity was measured by the CellTiter-Glo luminesecent cell viability assay following manufacturer's description (Promega). Cytotoxicity in MT-2 cells was determined from colorimetric quantitation of uninfected MT-2 cells after 5 days of coincubation.

[3] = Cytotoxicity in CEM cells; conditions: human
[4] = test system: HCV genotype 1b (Con 1 isolate) subgenomic replicon; experiment: microbe, parasite or virus in culture; assay type: cell-based, Hepatitis C virus; conditions: for improvement in anti-HCV EC50 over compound 2: relative to lead compound 2
Description: (§3) Cells. HCV genotype 1b (Con 1 isolate) subgenomic replicon cell line with luciferase reporter (Huh-luc/neo-ET) was kindly provided by Ralf Bartenschlager from the University of Heidelberg (37). Huh-luc/neo-ET cells were cultured in Dulbecco's modified Eagle medium (DMEM , supplemented with 10% fetal bovine serum (FBS), 1 mM nonessential amino acids, and 250 μg/ml of G418 (Invitrogen). Genotype 2a (JFH-I isolate) subgenomic replicon cells YSGR-JFH were cultured in DMEM containing 10 To fetal calf serum, 1 mM nonessential amino acids and 400 μg/ml G418 (31). An additional genotype 1b (Conl) replicon cell line (4291BBix) was cultured in similar media but with 3 μg/ml blasticidin (22).
as §1

HIV-1 IIIB = experiment: Anti-HIV activity in MT-2 cells, MTT quantitation of viral CPE; assay type: cell-based; conditions: read-out: Antiviral Activity EC50 HIV-1 IIIB
Description: as §1

[5] = test system: mitochondrial DNA content of CEM cells; experiment: Mitochondrial DNA toxicity, slot blot of CEM cell lysates; assay type: cell-based; conditions: read-out: Mitochondrial DNA Toxicity IC50 CEM
Description: Quantitation of mitochondrial DNA content was performed as previously published (18). Briefly, CEM cell lysates were spotted onto Hybond paper using the Miliford II slot blot apparatus (Schleicher & Schuell). MTDNA was detected with mtDNA-specific probe and then reprobed with Alu probe for internal control. The autoradiographic bands were quantified on scanning densitometer (Molecular Dynamics).

[6] = test system: HCV genotype 2a (JFH-1) replicon; experiment: HCV RNA quantification by qRT-PCR in YSGR-JFH cells; assay type: cell-based, Hepatitis C virus; conditions: Hepatitis C virus, 72 h, read-out: antiviral EC50 against YSGR-JFH replicon cells
Description: as §3
Activity of compound 6 against genotype 2a (JFH-I) replicons. In parallel to Huh-luc/neo-ET cells, 1×10^5 YSGR-JFH cells per well were incubated with DMSO control, compound 6, or recombinant human IFNα-2a (Pestka Biomedical Laboratories) in 6-well plates. Cells were harvested after 72 hrs of co-incubation and HCV RNAs were quantitated by qRT-PCR and normalized as described above.

[7] = Cytotoxicity in uninfected MT-2 cells; assay type: cell-based; conditions: human; uninfected MT-2 cells, 5 days
Description: as §2

Huh-7 cells = experiment: Cytotoxicity in Huh-7 cells (methylene blue or CellTiter-Glo); assay type: cell-based
Description: as §2

CEM cells [8] = experiment: Cytotoxicity in CEM cells; conditions: read-out: Cytotoxicity CC50 CEM
MT-2 cells = experiment: Cytotoxicity in uninfected MT-2 cells; assay type: cell-based
Description: as §2

CEM cells [9] = test system: CEM cells
[10] = Huh-luc/neo-ET, 72 hrs, luciferase, read-out: Antiviral Activity EC50 HCV

Compound | EC50 (HBV) | EC50 [4, 10] | EC50 (HIV-1 IIIB; MT-2 cells, 5 days) | IC50 ([5]; CEM cells) | CC50 (Huh-7 cells) | CC50 (CEM cells [9]) | CC50 (MT-2 cells) | other results
O=C(O)c1ccc(-c2c3nc(c(-c4ccc(C(=O)O)cc4)c4ccc([nH]4)c(-c4ccc(C(=O)O)cc4)c4nc(c(-c5ccc(C(=O)O)cc5)c5ccc2[nH]5)C=C4)C=C3)cc1 [Compound 1, Meso-Tetra(4-carboxyphenyl)porphine] |  |  |  |  |  |  |  | Fold Change in EC50 5% FBS [1]: 1.00; EC50 ([1]; Hepatitis C virus, Huh-luc/neo-ET, read-out: EC50 10% FBS, 10% FBS): 0.243 ± 0.036 µM; EC50 ([1]; Hepatitis C virus, Huh-luc/neo-ET, read-out: EC50 20% FBS, 20% FBS): 0.513 ± 0.069 µM; EC50 ([1]; Hepatitis C virus, Huh-luc/neo-ET, 5% FBS, read-out: EC50 5% FBS): 0.124 ± 0.008 µM; EC50 ([1]; Hepatitis C virus, Huh-luc/neo-ET, 40% FBS, read-out: EC50 40% FBS): 0.948 ± 0.089 µM; EC50 ([1]; Hepatitis C virus, Huh-luc/neo-ET, extrapolation of the plot of EC50 vs serum amount, read-out: EC50 0% FBS (Theoretical)): 0.0482 µM; Fold Change in EC50 10% FBS [1]: 1.95 ± 0.16; Fold Change in EC50 20% FBS [1]: 4.16 ± 0.82; Fold Change in EC50 40% FBS [1]: 7.62 ± 0.46; Kd (cytochrome c): 0.95 ± 0.25 µM; EC50 (HBV; Hepatitis B virus): > 10 µM; CC50 at 3 days [2]: > 50 µM; CC50 [3]: 34 µM; EC50 ([4]; Hepatitis C virus, Huh-luc/neo-ET, 72 hrs, luciferase, read-out: Antiviral Activity EC50 HCV): 0.243 ± 0.0359 µM; improvement in anti-HCV EC50 over compound 2 [4]: Over 7 fold; EC50 (HIV-1 IIIB; Human immunodeficiency virus 1, IIIB, MT2, 120 h): > 25 µM; IC50 ([5]; Homo sapiens, CCRF-CEM): > 50 µM; EC50 [6]: 1.9 µM; CC50 at 5 days [7]: > 25 µM
O=C(O)CNC(=O)c1ccc(-c2c3nc(c(-c4ccc(C(=O)NCC(=O)O)cc4)c4ccc([nH]4)c(-c4ccc(C(=O)NCC(=O)O)cc4)c4nc(c(-c5ccc(C(=O)NCC(=O)O)cc5)c5ccc2[nH]5)C=C4)C=C3)cc1 [Compound 2] | > 10 µM | 1.8 ± 0.7 µM | > 25 µM | 15 ± 3.7 µM |  |  |  | CC50 (Huh-7 cells; Huh-7 cells, 3 days, read-out: Cytotoxicity CC50 Huh-7): > 50 µM; CC50 (CEM cells [8]): 27 ± 15.1 µM; CC50 (MT-2 cells; uninfected MT-2 cells, 5 days, read-out: Cytotoxicity CC50 MT-2): 3.2 ± 1.13 µM
O=C(O)c1cc(C(=O)O)cc(-c2c3nc(c(-c4cc(C(=O)O)cc(C(=O)O)c4)c4ccc([nH]4)c(-c4cc(C(=O)O)cc(C(=O)O)c4)c4nc(c(-c5cc(C(=O)O)cc(C(=O)O)c5)c5ccc2[nH]5)C=C4)C=C3)c1 [Compound 3] | 7 µM | 13.6 ± 1.1 µM | > 100 µM | 25 µM | > 50 µM | > 50 µM | 22 µM | 
O=C(O)c1ccc(-c2ccc(-c3c4nc(c(-c5ccc(-c6ccc(C(=O)O)cc6)cc5)c5ccc([nH]5)c(-c5ccc(-c6ccc(C(=O)O)cc6)cc5)c5nc(c(-c6ccc(-c7ccc(C(=O)O)cc7)cc6)c6ccc3[nH]6)C=C5)C=C4)cc2)cc1 [Compound 4, Tetracarboxybiphenylporphyrin] | > 10 µM | 0.877 ± 0.0289 µM | > 25 µM | 6 µM | 32.2 ± 4.14 µM | 10 µM | > 25 µM | EC50 ([1]; 5% FBS, read-out: EC50 5% FBS): 0.633 ± 0.176 µM; EC50 ([1]; 40% FBS, read-out: EC50 40% FBS): 1.48 ± 0.015 µM; Fold Change in EC50 5% FBS [1]: 1.00; EC50 ([1]; extrapolation of the plot of EC50 vs serum amount, read-out: EC50 0% FBS (Theoretical)): 0.38 µM; EC50 ([1]; read-out: EC50 10% FBS, 10% FBS): 0.877 ± 0.029 µM; EC50 ([1]; read-out: EC50 20% FBS, 20% FBS): 1.21 ± 0.056 µM; Fold Change in EC50 10% FBS [1]: 1.46 ± 0.42; Fold Change in EC50 20% FBS [1]: 2.01 ± 0.52; Fold Change in EC50 40% FBS [1]: 2.48 ± 0.74; Kd (cytochrome c): 17 ± 0.84 µM
O=C(O)CNC(=O)c1ccc(-c2ccc(-c3c4nc(c(-c5ccc(-c6ccc(C(=O)NCC(=O)O)cc6)cc5)c5ccc([nH]5)c(-c5ccc(-c6ccc(C(=O)NCC(=O)O)cc6)cc5)c5nc(c(-c6ccc(-c7ccc(C(=O)NCC(=O)O)cc7)cc6)c6ccc3[nH]6)C=C5)C=C4)cc2)cc1 [Compound 5] | > 20 µM | 0.148 ± 0.006 µM | 1.5 ± 0.436 µM | > 50 µM | > 50 µM | > 50 µM | 13 ± 4.36 µM | improvement in anti-HCV EC50 over compound 2 [4]: 12 fold
O=C(O)CNC(=O)c1cc(C(=O)NCC(=O)O)cc(-c2ccc(-c3c4nc(c(-c5ccc(-c6cc(C(=O)NCC(=O)O)cc(C(=O)NCC(=O)O)c6)cc5)c5ccc([nH]5)c(-c5ccc(-c6cc(C(=O)NCC(=O)O)cc(C(=O)NCC(=O)O)c6)cc5)c5nc(c(-c6ccc(-c7cc(C(=O)NCC(=O)O)cc(C(=O)NCC(=O)O)c7)cc6)c6ccc3[nH]6)C=C5)C=C4)cc2)c1 [Compound 7] | > 10 µM | > 12.5 µM | 1.05 ± 0.071 µM | 12.5 µM | 12.5 µM | > 50 µM | 15 ± 4.24 µM | 
O=C(O)c1cccc(-c2ccc(-c3c4nc(c(-c5ccc(-c6cccc(C(=O)O)c6)cc5)c5ccc([nH]5)c(-c5ccc(-c6cccc(C(=O)O)c6)cc5)c5nc(c(-c6ccc(-c7cccc(C(=O)O)c7)cc6)c6ccc3[nH]6)C=C5)C=C4)cc2)c1 [Compound 9] | 8 µM | 0.764 ± 0.06 µM | > 25 µM | 22 µM | 13 ± 0.7 µM | 50 µM | > 25 µM | 
C[N+](C)(C)c1ccc(-c2c3nc(c(-c4ccc([N+](C)(C)C)cc4)c4ccc([nH]4)c(-c4ccc([N+](C)(C)C)cc4)c4nc(c(-c5ccc([N+](C)(C)C)cc5)c5ccc2[nH]5)C=C4)C=C3)cc1 [TTMAPP, 5,10,I5,20-Tetrakis (4(trimethylammonio)-phenyl)-21H,23H-porphine, reference compound] |  |  |  |  |  |  |  | EC50 ([4]; HCV replicons in vitro, read-out: anti-HCV EC50): 3.58 µM
